pIC50, pKi: −log10 of the molar value.
Key:
Rattus norvegicus [1] = experiment: Effect of compound on […], […] at 10 umol/kg upon subcutaneous administration; Catalepsy = 0/4; assay type: functional
Rattus norvegicus [2] = experiment: Effect of compound on […], […] at 30 umol/kg upon subcutaneous administration; Catalepsy = 0/4; assay type: functional
Rattus norvegicus [3] = experiment: Effect of compound on apomorphine induced locomotor hyperactivity (APO-induced LMA), […] at 10 umol/kg upon subcutaneous administration; LMA (locomotor activity); assay type: functional
Rattus norvegicus [4] = experiment: Effect of compound on apomorphine induced locomotor hyperactivity (APO-induced LMA), […] at 30 umol/kg upon subcutaneous administration; LMA (locomotor activity); assay type: functional
Rattus norvegicus [5] = experiment: Effect of compound on apomorphine induced locomotor hyperactivity (APO-induced LMA), […] at 1 umol/kg upon subcutaneous administration; LMA (locomotor activity); assay type: functional
Rattus norvegicus [6] = experiment: Effect of compound on […], […] at 1 umol/kg upon subcutaneous administration; Catalepsy = 0/4; assay type: functional
[7] = biological target: T1, Serotonin 2 (5-HT2) receptor (Rattus norvegicus, UniProt P30994+P08909+P14842)
Description: pKi value for 5-hydroxytryptamine 2 receptor binding site

[8] = biological target: T1, Serotonin 2 (5-HT2) receptor; remark: listed apart in the source
Description: Binding affinity which represents concentration giving half-maximal inhibition of [3H]ketanserin binding to 5-hydroxytryptamine 2 receptor rat tissue homogenate

D(3) dopamine receptor = D(3) dopamine receptor (Rattus norvegicus, UniProt P19020)
Chain of D(3) dopamine receptor (P19020 whole entry): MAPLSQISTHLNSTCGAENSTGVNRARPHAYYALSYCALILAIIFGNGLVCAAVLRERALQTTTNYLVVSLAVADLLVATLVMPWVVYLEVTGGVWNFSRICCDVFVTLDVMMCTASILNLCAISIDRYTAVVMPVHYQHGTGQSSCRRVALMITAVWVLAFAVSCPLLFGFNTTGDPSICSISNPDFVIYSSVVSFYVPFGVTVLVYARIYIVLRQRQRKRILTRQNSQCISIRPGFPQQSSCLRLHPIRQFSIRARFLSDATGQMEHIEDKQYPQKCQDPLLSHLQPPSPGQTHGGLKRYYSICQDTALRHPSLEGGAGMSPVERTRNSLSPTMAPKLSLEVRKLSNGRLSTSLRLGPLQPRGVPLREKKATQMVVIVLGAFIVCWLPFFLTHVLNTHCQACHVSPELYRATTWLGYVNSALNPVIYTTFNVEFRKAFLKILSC
Description: Binding affinity which represents concentration giving half-maximal inhibition of [3H]7-OH-DPAT binding to Dopamine receptor D3 in rat tissue homogenate

[9] = biological target: Sodium-dependent dopamine transporter (Rattus norvegicus) (UniProt P23977); experiment: Inhibition of dopamine uptake from dopamine uptake site
Chain of Sodium-dependent dopamine transporter (Rattus norvegicus) (P23977 whole entry, looked up): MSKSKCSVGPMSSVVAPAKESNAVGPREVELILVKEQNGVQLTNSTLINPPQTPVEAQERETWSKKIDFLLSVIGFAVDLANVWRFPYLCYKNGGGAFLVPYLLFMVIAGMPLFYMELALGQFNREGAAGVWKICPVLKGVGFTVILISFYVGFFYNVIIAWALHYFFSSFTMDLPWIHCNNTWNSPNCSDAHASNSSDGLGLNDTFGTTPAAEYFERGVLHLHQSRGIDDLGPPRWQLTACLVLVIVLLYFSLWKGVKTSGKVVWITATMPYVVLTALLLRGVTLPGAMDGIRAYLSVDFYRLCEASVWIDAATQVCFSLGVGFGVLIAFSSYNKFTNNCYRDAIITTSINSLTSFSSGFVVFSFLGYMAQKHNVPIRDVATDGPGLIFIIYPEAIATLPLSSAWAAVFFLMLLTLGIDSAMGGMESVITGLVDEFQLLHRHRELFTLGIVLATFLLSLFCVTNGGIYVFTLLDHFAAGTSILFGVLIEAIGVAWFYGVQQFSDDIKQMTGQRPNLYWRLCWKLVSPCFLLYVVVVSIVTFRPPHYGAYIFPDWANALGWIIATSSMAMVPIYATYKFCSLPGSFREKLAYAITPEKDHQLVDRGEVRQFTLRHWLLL

Rattus norvegicus [10] = experiment: Effect of compound on […], […] at 10 umol/kg upon subcutaneous administration; Catalepsy = 1/4; assay type: functional
Rattus norvegicus [11] = experiment: Effect of compound on […], […] at 3 umol/kg upon subcutaneous administration; Catalepsy = 0/4; assay type: functional
Rattus norvegicus [12] = experiment: Effect of compound on […], […] at 30 umol/kg upon subcutaneous administration; Catalepsy = 4/4; assay type: functional
Rattus norvegicus [13] = experiment: Effect of compound on apomorphine induced locomotor hyperactivity (APO-induced LMA), […] at 3 umol/kg upon subcutaneous administration; LMA (locomotor activity); assay type: functional

Cc1cc2c(s1)Nc1ccccc1N=C2N1CCN(C)CC1 [OLANZAPINE]
Catalepsy (Rattus norvegicus [1]): 0
Catalepsy (Rattus norvegicus [2]): 0
LMA (Rattus norvegicus [3]): 47
LMA (Rattus norvegicus [4]): 4
LMA (Rattus norvegicus [5]): 323
Catalepsy (Rattus norvegicus [6]): 0
Log Ki [7]: -7.9
Ki [8]: 12 nM

CN1CCN(C2Cn3cccc3Sc3ccc(Cl)cc32)CC1 (racemic)
pKi (D(3) dopamine receptor): 8.39
pIC50 [9]: 5.19

CN1CCN(C2Cn3cccc3Sc3ccc(Cl)cc32)CC1.Cl.Cl (racemic)
Catalepsy (Rattus norvegicus [10]): 1
Catalepsy (Rattus norvegicus [11]): 0
Catalepsy (Rattus norvegicus [12]): 4
LMA (Rattus norvegicus [3]): 43
LMA (Rattus norvegicus [13]): 40
LMA (Rattus norvegicus [4]): 39
LMA (Rattus norvegicus [5]): 877
Catalepsy (Rattus norvegicus [6]): 0

Source: ChEMBL document CHEMBL1131586, “New antipsychotic agents with serotonin and dopamine antagonist properties based on a pyrrolo[2,1-b][1,3]benzothiazepine structure” (J Med Chem, 1998)
